Assay results as given in PubChem BioAssay (NCI).
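Assay format: 96-well plates, 48-hour exposure. At the TGI there is no net growth.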

Columns and labels:
Test in all cases: inhibition of tumour cell growth, NCI panel, 48 h
786-0 renal = system: 786-0 renal
A498 renal = system: A498 renal
A549 NSCLC = system: A549 NSCLC
ACHN renal = system: ACHN renal
CAKI-1 renal = system: CAKI-1 renal
CCRF-CEM leukemia = system: CCRF-CEM leukemia
COLO 205 colon = system: COLO 205 colon
DLD-1 colon = system: DLD-1 colon
DMS 114 small cell lung = system: DMS 114 small cell lung
HCC-2998 colon = system: HCC-2998 colon
HCT-116 colon = system: HCT-116 colon
HCT-15 colon = system: HCT-15 colon
HL-60(TB) leukemia = system: HL-60(TB) leukemia
HOP-18 NSCLC = system: HOP-18 NSCLC
HOP-62 NSCLC = system: HOP-62 NSCLC
HOP-92 NSCLC = system: HOP-92 NSCLC
HT29 colon = system: HT29 colon
IGROV1 ovarian = system: IGROV1 ovarian
K-562 leukemia = system: K-562 leukemia
KM12 colon = system: KM12 colon
KM20L2 colon = system: KM20L2 colon
LOX IMVI melanoma = system: LOX IMVI melanoma
LXFL 529 NSCLC = system: LXFL 529 NSCLC
M14 melanoma = system: M14 melanoma
MALME-3M melanoma = system: MALME-3M melanoma
MOLT-4 leukemia = system: MOLT-4 leukemia
NCI-H23 lung = system: NCI-H23 lung
NCI-H460 lung = system: NCI-H460 lung
OVCAR-5 ovarian = system: OVCAR-5 ovarian
OVCAR-8 ovarian = system: OVCAR-8 ovarian
SF-268 CNS = system: SF-268 CNS
SF-295 CNS = system: SF-295 CNS
SF-539 CNS = system: SF-539 CNS
SK-MEL-2 melanoma = system: SK-MEL-2 melanoma
SK-MEL-28 melanoma = system: SK-MEL-28 melanoma
SK-OV-3 ovarian = system: SK-OV-3 ovarian
SN12C renal = system: SN12C renal
SNB-19 CNS = system: SNB-19 CNS
SNB-75 CNS = system: SNB-75 CNS
SNB-78 CNS = system: SNB-78 CNS
SR leukemia = system: SR leukemia
SW-620 colon = system: SW-620 colon
TK-10 renal = system: TK-10 renal
U251 CNS = system: U251 CNS
UACC-257 melanoma = system: UACC-257 melanoma
UACC-62 melanoma = system: UACC-62 melanoma
UO-31 renal = system: UO-31 renal
XF 498 CNS = system: XF 498 CNS

## C(CCC[Te][Te]CCCCCCOC1CCCCO1)CCOC1CCCCO1 (stereo not drawn)
786-0 renal
  TGI: 29.4 µM
A498 renal
  TGI: 37.8 µM
A549 NSCLC
  TGI: 41.5 µM
ACHN renal
  TGI: 22.7 µM
CAKI-1 renal
  TGI: 82.6 µM
CCRF-CEM leukemia
  TGI: 41.4 µM
COLO 205 colon
  TGI: 36.5 µM
DLD-1 colon
  TGI: 45.8 µM
DMS 114 small cell lung
  TGI: 25.5 µM
HCC-2998 colon
  TGI: 27.9 µM
HCT-116 colon
  TGI: 55.8 µM
HCT-15 colon
  TGI: 60.6 µM
HL-60(TB) leukemia
  TGI: 37.9 µM
HOP-18 NSCLC
  TGI: 51.4 µM
HOP-62 NSCLC
  TGI: 33.7 µM
HOP-92 NSCLC
  TGI: 30.5 µM
HT29 colon
  TGI: 25.6 µM
IGROV1 ovarian
  TGI: 48 µM
K-562 leukemia
  TGI: 29.7 µM
KM12 colon
  TGI: 28.9 µM
KM20L2 colon
  TGI: 28.7 µM
LOX IMVI melanoma
  TGI: 35.1 µM
LXFL 529 NSCLC
  TGI: 21.1 µM
M14 melanoma
  TGI: > 100 µM
MALME-3M melanoma
  TGI: 20.5 µM
MOLT-4 leukemia
  TGI: 46.6 µM
NCI-H23 lung
  TGI: 31.1 µM
NCI-H460 lung
  TGI: 30 µM
OVCAR-5 ovarian
  TGI: 33.4 µM
OVCAR-8 ovarian
  TGI: 33.9 µM
SF-268 CNS
  TGI: 41.2 µM
SF-295 CNS
  TGI: 32.1 µM
SF-539 CNS
  TGI: 32.1 µM
SK-MEL-2 melanoma
  TGI: 28.3 µM
SK-MEL-28 melanoma
  TGI: 27.4 µM
SK-OV-3 ovarian
  TGI: 80.7 µM
SN12C renal
  TGI: 29.4 µM
SNB-19 CNS
  TGI: 29 µM
SNB-75 CNS
  TGI: 33.7 µM
SNB-78 CNS
  TGI: 38.1 µM
SR leukemia
  TGI: 38.2 µM
SW-620 colon
  TGI: 45.2 µM
TK-10 renal
  TGI: 95.1 µM
U251 CNS
  TGI: 24.5 µM
UACC-257 melanoma
  TGI: 20.7 µM
UACC-62 melanoma
  TGI: 23.6 µM
UO-31 renal
  TGI: 77.3 µM
XF 498 CNS
  TGI: 21.9 µM
